Results from US20260138961A1, “MODULATORS OF MITOCHONDRIAL DNA REPLICATION” (Pretzel Therapeutics, Inc., priority 2022, published 2026).

biological target: T1, wild type human POLγ (POLγA:WT) (Homo sapiens, UniProt P54098); assay: DNA polymerization assay, wild type POLγ; type: biochemical; details: 100 μM dNTP, read-out: WT AC50 (μM) at 100 μM
T1 sequence (P54098 1-1239): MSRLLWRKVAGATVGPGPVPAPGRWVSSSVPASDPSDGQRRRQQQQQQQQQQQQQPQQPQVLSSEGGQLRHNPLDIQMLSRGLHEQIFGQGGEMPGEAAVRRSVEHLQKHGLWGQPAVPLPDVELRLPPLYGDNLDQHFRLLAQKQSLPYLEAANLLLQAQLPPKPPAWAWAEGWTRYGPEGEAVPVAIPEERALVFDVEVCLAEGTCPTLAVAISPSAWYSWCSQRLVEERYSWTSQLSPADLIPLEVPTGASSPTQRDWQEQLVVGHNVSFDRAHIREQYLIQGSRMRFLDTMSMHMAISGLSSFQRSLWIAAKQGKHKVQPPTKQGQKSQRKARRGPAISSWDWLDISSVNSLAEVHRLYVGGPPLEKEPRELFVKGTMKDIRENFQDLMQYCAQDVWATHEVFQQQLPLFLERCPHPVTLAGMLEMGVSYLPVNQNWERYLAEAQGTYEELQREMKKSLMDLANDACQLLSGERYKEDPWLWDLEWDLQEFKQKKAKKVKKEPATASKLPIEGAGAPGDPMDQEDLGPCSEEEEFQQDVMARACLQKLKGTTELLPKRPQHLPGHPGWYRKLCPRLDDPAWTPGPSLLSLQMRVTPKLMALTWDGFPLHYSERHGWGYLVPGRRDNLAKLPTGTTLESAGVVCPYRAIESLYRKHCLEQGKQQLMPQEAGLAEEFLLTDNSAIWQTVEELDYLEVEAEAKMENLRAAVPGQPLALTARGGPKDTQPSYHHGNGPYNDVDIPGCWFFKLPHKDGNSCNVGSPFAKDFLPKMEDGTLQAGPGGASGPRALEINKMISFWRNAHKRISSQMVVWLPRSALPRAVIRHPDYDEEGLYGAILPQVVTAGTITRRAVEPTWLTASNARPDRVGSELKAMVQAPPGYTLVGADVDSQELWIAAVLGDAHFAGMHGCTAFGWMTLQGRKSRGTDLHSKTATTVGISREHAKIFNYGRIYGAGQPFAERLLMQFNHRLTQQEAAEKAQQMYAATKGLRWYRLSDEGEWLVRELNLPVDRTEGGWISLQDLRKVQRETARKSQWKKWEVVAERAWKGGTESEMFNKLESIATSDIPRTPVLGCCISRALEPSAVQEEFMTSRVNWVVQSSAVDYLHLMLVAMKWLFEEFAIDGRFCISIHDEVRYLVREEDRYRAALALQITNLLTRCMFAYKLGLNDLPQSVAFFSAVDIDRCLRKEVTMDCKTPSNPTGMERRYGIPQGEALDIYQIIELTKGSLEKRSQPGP
T1 sequence (Q9UHN1 1-485 partner): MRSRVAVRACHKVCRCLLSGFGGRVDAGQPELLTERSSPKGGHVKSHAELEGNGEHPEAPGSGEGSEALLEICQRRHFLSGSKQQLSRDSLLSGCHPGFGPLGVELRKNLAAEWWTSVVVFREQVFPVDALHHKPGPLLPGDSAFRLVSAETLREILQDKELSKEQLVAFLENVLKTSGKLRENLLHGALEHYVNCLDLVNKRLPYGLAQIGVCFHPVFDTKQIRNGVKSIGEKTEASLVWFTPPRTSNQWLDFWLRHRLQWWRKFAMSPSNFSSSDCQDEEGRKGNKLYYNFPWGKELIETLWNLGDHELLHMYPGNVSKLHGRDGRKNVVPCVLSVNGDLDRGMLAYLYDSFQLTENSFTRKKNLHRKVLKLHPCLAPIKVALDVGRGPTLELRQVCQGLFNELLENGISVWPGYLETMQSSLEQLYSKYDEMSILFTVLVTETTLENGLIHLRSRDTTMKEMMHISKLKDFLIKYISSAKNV
Description: DNA Polymerization Assay to Monitor Effects on Human Wildtype POLγ and Four Disease-Causing Mutant Variants of Human POLγ.
The ability of small molecules to stimulate the polymerase activity of POLγ was analyzed in a quantitative fluorescence SYBR Green I assay with fluorescence intensity (FI) readout.
In the presence of dNTPs, wild type human POLγ and mutant derivatives thereof were incubated with single-stranded, circular M13mp18 ssDNA hybridized to a short DNA oligonucleotide that functions as a primer for initiation of DNA synthesis. POLγ and mutant derivatives thereof will extend the primer and use the M13mp18 molecule as a template to synthesize long stretches of double-stranded DNA. SYBR Green I, which is a double-stranded DNA-binding dye, was used to quantify formation of double-stranded DNA in the reaction. When bound to double-stranded DNA, SYBR Green I fluorescence increases by up to 100-fold.
The assay was performed in the 384-well plate format. Upon addition of compounds, changes in double-stranded DNA synthesis activity can be monitored by following effects on fluorescent intensity.
The reactions also contained the accessory POLγB subunit, and the human mitochondrial single-stranded DNA binding protein (mtSSB).
The DNA template mixture used in the assay contained 0.5 nM primed M13 mp18 ssDNA, 400 nM mtSSB, 0.1 mM Tris-HCl (pH 8.0), 0.1 mM dNTP, 10 mM MgCl2, 0.1 mg/mL BSA, 1 mM TCEP solution, and 0.02% Triton X-100. The DNA template mixture for the wild type protein contained either 100 μM dNTP, 1 μM dNTP, or 0.1 μM dNTP, designated in Table 2 as 100 μM, 1 μM, and 0.1 μM, respectfully.
Microplates with compounds (0.1 μL in each well) to be tested in the assay were prepared from 10 mM compound stocks in 100% DMSO, and equal amounts of DMSO without any compound were added to positive and negative control wells.
The protein mixture was dispensed (5 μL into each well) into compound plates and incubated at 37° C. for 15 minutes. After incubation, 5 μL of the DNA template mixture was dispensed into each well. The plates were then incubated at 37° C. for 2 hours.
During incubation, a combined stop buffer and detection reagent solution was prepared. The buffer contained 25 mM EDTA (pH 8.0), 0.02% Triton X-100, and SYBR Green I [Invitrogen] diluted 10,000× (for fluorescent readout). EDTA will stop the enzymatic reaction by chelating magnesium ions.

Q: Which AC50 does the source give for `Cc1cc(S(=O)(=O)Nc2cccc(C(=O)N3CCCOC(C)(C)C3)c2)c(C)cc1Cl` [Example 106, 4-chloro-N-(3-(2,2-dimethyl-1,4-oxazepane-4-carbonyl)phenyl)-2,5-dimethylbenzenesulfonamide] here?
A: 32 µM

Q: With `Cc1cc(S(=O)(=O)Nc2cccc(C(=O)N3CCc4cn[nH]c4C3)c2)c(C)cc1Cl` [Example 107, 4-chloro-2,5-dimethyl-N-(3-(4,5,6,7-tetrahydro-1H-pyrazolo[3,4-c]pyridine-6-carbonyl)phenyl)benzenesulfonamide] as the compound, how does the AC50 read?
A: 1 µM

Q: How did the AC50 turn out when `Cc1cc(S(=O)(=O)Nc2cccc(C(=O)N3C[C@H](C)[C@@H](N)C3)c2)c(C)cc1Cl` [Example 108, N-(3-((3R,4S)-3-amino-4-methylpyrrolidine-1-carbonyl)phenyl)-4-chloro-2,5-dimethylbenzenesulfonamide] was run?
A: 24 µM

Q: Which AC50 does the source give for `Cc1cc(S(=O)(=O)Nc2cccc(C(=O)N(C)c3ccccn3)c2)c(C)cc1Cl` [Example 109, 3-((4-chloro-2,5-dimethylphenyl)sulfonamido)-N-methyl-N-(pyridin-2-yl)benzamide] here?
A: > 100 µM

Q: For `Cc1cc(NS(=O)(=O)c2cc(C)c(Cl)cc2C)cc(-c2ncc(C)s2)c1` [Example 110, 4-chloro-2,5-dimethyl-N-(3-methyl-5-(5-methylthiazol-2-yl)phenyl)benzenesulfonamide], which AC50 is on record?
A: > 100 µM

Q: For `Cc1cnc(-c2cc(NS(=O)(=O)c3cc(C)c(Cl)cc3C)ccc2Cl)s1` [Example 111, 4-chloro-N-(4-chloro-3-(5-methylthiazol-2-yl)phenyl)-2,5-dimethylbenzenesulfonamide], which AC50 is on record?
A: 3 µM

Q: `Cc1cc(S(=O)(=O)Nc2cccc(C(=O)N(C(C)C)C3COC3)c2)c(C)cc1Cl` [Example 112, 3-((4-chloro-2,5-dimethylphenyl)sulfonamido)-N-isopropyl-N-(oxetan-3-yl)benzamide] was tested. Which AC50 did it give?
A: 20 µM

Q: With `Cc1cc(Cl)ccc1S(=O)(=O)Nc1cccc(C(=O)N2CCC[C@H]2C)c1` [Example 116, (R)-4-chloro-2-methyl-N-(3-(2-methylpyrrolidine-1-carbonyl)phenyl)benzenesulfonamide] as the compound, how does the AC50 read?
A: > 10 µM

Q: Which AC50 does the source give for `Cc1cc(S(=O)(=O)Nc2cccc(C(=O)N3CCCC3)c2)c(C)cc1Cl` [Example 119, 4-chloro-2,5-dimethyl-N-(3-(pyrrolidine-1-carbonyl)phenyl) benzenesulfonamide] here?
A: > 10 µM

Q: `Cc1ccc(S(=O)(=O)Nc2csc(-c3ccccc3)n2)c(C)c1` [Example 123, 2,4-dimethyl-N-(2-phenylthiazol-4-yl)benzenesulfonamide] was tested. Which AC50 did it give?
A: 3 µM

Q: With `Cc1cc(F)ccc1S(=O)(=O)Nc1csc(-c2ccccc2)n1` [Example 124, 4-fluoro-2-methyl-N-(2-phenylthiazol-4-yl)benzenesulfonamide] as the compound, how does the AC50 read?
A: 1 µM

Q: With `O=S(=O)(Nc1csc(-c2ccccc2)n1)c1ccccc1Cl` [Example 125, 2-chloro-N-(2-phenylthiazol-4-yl)benzenesulfonamide] as the compound, how does the AC50 read?
A: > 10 µM

Q: With `Cc1cc(S(=O)(=O)Nc2nsc(-c3ccccc3)n2)c(C)cc1Cl` [Example 131, 4-chloro-2,5-dimethyl-N-(5-phenyl-1,2,4-thiadiazol-3-yl)benzenesulfonamide] as the compound, how does the AC50 read?
A: 1 µM

Q: With `Cc1ccc(C)c(S(=O)(=O)Nc2csc(-c3ccccc3)n2)c1` [Example 134, 2,5-dimethyl-N-(2-phenylthiazol-4-yl)benzenesulfonamide] as the compound, how does the AC50 read?
A: 0.3 µM

Q: `Cc1cc(Cl)ccc1S(=O)(=O)Nc1csc(-c2ccccc2)n1` [Example 135, 4-chloro-2-methyl-N-(2-phenylthiazol-4-yl)benzenesulfonamide] was tested. Which AC50 did it give?
A: 0.6 µM

Q: Which AC50 does the source give for `Cc1cc(S(=O)(=O)Nc2csc(-c3ccccc3)n2)c(Cl)cc1F` [Example 136, 2-chloro-4-fluoro-5-methyl-N-(2-phenylthiazol-4-yl)benzenesulfonamide] here?
A: 0.8 µM

Q: `Cc1cc(S(=O)(=O)Nc2nc(-c3ccccc3)no2)c(C)cc1Cl` [Example 143, 4-chloro-2,5-dimethyl-N-(3-phenyl-1,2,4-oxadiazol-5-yl)benzenesulfonamide] was tested. Which AC50 did it give?
A: > 10 µM

Q: Which AC50 does the source give for `O=S(=O)(Nc1csc(-c2ccccc2)n1)c1cccc(C(F)(F)F)c1` [Example 151, N-(2-phenylthiazol-4-yl)-3-(trifluoromethyl)benzenesulfonamide] here?
A: > 10 µM

Q: For `O=S(=O)(Nc1csc(-c2ccccc2)n1)c1ccc2c(c1)CCO2` [Example 152, N-(2-phenylthiazol-4-yl)-2,3-dihydrobenzofuran-5-sulfonamide], which AC50 is on record?
A: > 10 µM

Q: Which AC50 does the source give for `Cc1cc(S(=O)(=O)Nc2ccc3c(c2)CC(=O)N3)c(C)cc1Cl` [Example 185, 4-chloro-2,5-dimethyl-N-(2-oxoindolin-5-yl)benzenesulfonamide] here?
A: 6 µM

Q: How did the AC50 turn out when “(R)-2,5-dimethyl-N-(3-(3-methylmorpholine-4-carbonyl)phenyl)benzenesulfonamide [Example 1]” was run?
A: 2 µM

same assay, conditions: WT AC50 (μM) at 100 μM, 100 μM dNTP

Q: How did the AC50 turn out when `Cc1cc(S(=O)(=O)Nc2noc(-c3ccccc3)n2)c(C)cc1Cl` [Example 142, 4-chloro-2,5-dimethyl-N-(5-phenyl-1,2,4-oxadiazol-3-yl)benzenesulfonamide] was run?
A: > 10 µM
